Columns and labels:
[1] = set-up: species or system human; conditions: in vivo
Protocol: (§1) Eligible subjects were randomized to receive either taniborbactam or placebo in a 3:1 ratio within dose cohorts in both the SAD and MAD parts of the study. Each dose cohort in the SAD part of the study enrolled 8 subjects, and each dose cohort in the MAD part of the study enrolled 12 subjects. In the SAD part, subjects received 62.5, 125, 250, 500, 1,000, or 1,500 mg taniborbactam as a 2-h intravenous (i.v.) infusion. In the MAD part, subjects received 2-h intravenous i.v. infusions of 250, 500, or 750 mg taniborbactam q8h over 10 days, ending after a final morning dose on day 10 (total of 28 doses).
Safety was assessed based on the occurrence of adverse events and evaluation of laboratory tests (chemistry, hematology, urinalysis), physical examination, vital signs, and 12-lead electrocardiograms (ECGs) that were performed throughout the study. Safety was followed through 7 days postdose in the SAD part and followed through 7 days post-last dose in the MAD part.

[2] = Single-ascending-dose (SAD) pharmacokinetics in plasma and urine, healthy adult volunteers; type: in vivo, human; conditions: for Tmax: median (range); for Fe: excreted unchanged in urine over 48 h; for Ae: urine over 48 h
Protocol: as §1
Blood samples for assay of taniborbactam in plasma were collected predose and at 1, 2, 2.25, 2.5, 2.75, 3, 4, 6, 8, 12, 26, and 50 h after the start of drug infusion in the SAD part. For the MAD part, blood samples to determine taniborbactam plasma concentrations were collected predose and at 1, 2, 2.25, 2.5, 2.75, 3, 4, 6, and 8 h following the first dose (day 1) and predose and at 1, 2, 2.25, 2.5, 2.75, 3, 4, 6, 10, 14, and 26 h following the last dose (day 10). Urine was collected predose and at intervals of 0 to 4, 4 to 8, 8 to 24, and 24 to 48 h after the start of the infusion in the SAD part for the higher-dose groups (500 to 1,500 mg taniborbactam). For the MAD part, urine was collected through the dosing interval following the last dose using collection intervals of 0 to 4 and 4 to 8 h after the start of the infusion. At the end of each urine collection interval, the volume of each urine collection was recorded and a sample was taken.
Plasma and urine samples were assayed for taniborbactam and screened for possible metabolites. Human dipotassium ethylenediaminetetraacetic acid (K2EDTA) plasma samples were processed using protein precipitation and assayed using ultra-high-performance liquid chromatography with tandem mass spectrometric detection (LC-MS/MS). Both low- and high-range methods were developed and validated for plasma samples, with calibration ranges of 5 to 5,000 ng/ml and 100 to 100,000 ng/ml, respectively. Acidified urine samples were processed using solid-phase extraction and assayed using a validated LC-MS/MS method with a calibration range of 5.0 to 5,000 ng/ml. For both matrices, separation was accomplished using a Waters Acquity HSS T3 column (Milford, MA) at 50°C, and gradient elution using 10 mM ammonium formate with 1% formic acid as mobile phase A and 50:50:1 acetonitrile:methanol:formic acid (vol/vol/vol) as mobile phase B. A triple quadrupole mass spectrometer (API Triple Quad 5500; AB Sciex, Framingham, MA) equipped with a turbo-ion spray set was used for detection in positive ion mode, and quantification was based on multiple reaction monitoring. The internal standard used in the assays was D4-taniborbactam.
Individual subject plasma and urine taniborbactam pharmacokinetic parameters were evaluated using noncompartmental analysis methods (Phoenix WinNonlin, Certara, Princeton, NJ). Single-dose pharmacokinetic parameters were determined in the SAD part, and both single-dose (day 1) and multiple-dose (day 10) pharmacokinetic parameters were determined in the MAD part. Estimated pharmacokinetic parameters included Cmax, time to Cmax (Tmax), AUCtau, AUC0–inf, t1/2, CL, VZ, Ae, Fe, and CLR. The actual sample times were used to calculate the pharmacokinetic parameters. Calculation of λZ was based on best fit of concentrations in the observed terminal elimination phase of a profile, and statistical inclusion of any parameter based on λZ required the goodness of fit statistic (R^2) to be greater than 0.8. Pharmacokinetic data were summarized using descriptive statistics by treatment. Dose proportionality based on Cmax and AUC was determined using linear regression to calculate the slope and 90% CI and observing whether a slope of 1 was included in the confidence interval. The dose proportionality analysis included subject body weight as a covariate in the analysis.

[3] = set-up: species or system human; conditions: in vivo; remark: listed apart in the source
Description: To assess possible metabolites of taniborbactam, plasma and urine samples were pooled across subjects by time points, processed, and analyzed by ultra-high performance liquid chromatography tandem mass spectrometry with a quadrupole time-of-flight mass spectrometer, for acquisition of high-resolution accurate mass data, in positive mode with electrospray ionization, incorporating in-line UV detection with a photodiode array detector (Waters Acquity UPLC). The acquired chromatographic and mass spectral data were compared to analogous data obtained for the corresponding predose and placebo-dose samples to identify metabolites potentially associated with taniborbactam metabolism. Chromatographic peaks observed to be unique to the samples were subject to investigation by mass spectrometric techniques.

[4] = single dose 62.5 mg, 2-h i.v. infusion, mean (%CV)
[5] = single dose 125 mg, 2-h i.v. infusion, mean (%CV)
[6] = single dose 250 mg, 2-h i.v. infusion, mean (%CV)
[7] = single dose 500 mg, 2-h i.v. infusion, mean (%CV)
[8] = single dose 1,000 mg, 2-h i.v. infusion, mean (%CV)
[9] = single dose 1,000 mg, mean (%CV)
[10] = single dose 1,500 mg, 2-h i.v. infusion, mean (%CV)
[11] = single dose 1,500 mg, mean (%CV)

**Q.** What does the source list for `NCCN[C@H]1CC[C@H](CC(=O)N[C@H]2Cc3cccc(C(=O)O)c3OB2O)CC1` [Taniborbactam]?
**A.** subjects with adverse events considered by the investigator to be treatment related [1]: 4 subjects; t1/2 ([2]; higher single-dose groups (500 to 1,500 mg)): ~5.7 h; AUCinf [2, 4]: 11,284 (13.3) h · ng/ml; CL [2, 4]: 5.6 (14.1) liters/h; Cmax [2, 4]: 3,398 (17.0) ng/ml; Vz [2, 4]: 28.4 (18.7) liters; Tmax ([2]; single dose 62.5 mg, 2-h i.v. infusion): 2.0 (2.0, 2.0) h; t1/2 ([2]; single dose 62.5 mg, 2-h i.v. infusion, terminal elimination, mean (%CV)): 3.5 (9.3) h; AUCinf [2, 5]: 20,326 (13.7) h · ng/ml; CL [2, 5]: 6.2 (12.6) liters/h; Cmax [2, 5]: 5,023 (13.8) ng/ml; Vz [2, 5]: 30.2 (14.2) liters; Tmax ([2]; single dose 125 mg, 2-h i.v. infusion): 2.0 (2.0, 2.0) h; t1/2 ([2]; single dose 125 mg, 2-h i.v. infusion, terminal elimination, mean (%CV)): 3.4 (5.8) h; AUCinf [2, 6]: 41,106 (19.0) h · ng/ml; CL [2, 6]: 6.3 (17.5) liters/h; Cmax [2, 6]: 11,533 (13.8) ng/ml; Vz [2, 6]: 34.6 (17.1) liters; Tmax ([2]; single dose 250 mg, 2-h i.v. infusion): 2.0 (2.0, 2.0) h; t1/2 ([2]; single dose 250 mg, 2-h i.v. infusion, terminal elimination, mean (%CV)): 4.0 (31.1) h; AUCinf [2, 7]: 82,499 (9.2) h · ng/ml; CL [2, 7]: 6.1 (9.0) liters/h; Cmax [2, 7]: 22,650 (11.4) ng/ml; Vz [2, 7]: 50.2 (12.1) liters; Tmax ([2]; single dose 500 mg, 2-h i.v. infusion): 2.0 (2.0, 2.0) h; t1/2 ([2]; single dose 500 mg, 2-h i.v. infusion, terminal elimination, mean (%CV)): 5.7 (4.3) h; Fe ([2]; single dose 500 mg, mean (%CV)): 64.1 (9.6) %; Fe ([2]; single dose 500 mg, mean (%CV), listed as taniborbactam): 64.1%; CLR ([2]; single dose 500 mg, mean (%CV)): 3.9 (15.5) liters/h; Ae ([2]; single dose 500 mg, mean (%CV)): 320.6 (9.6) mg; AUCinf [2, 8]: 156,542 (15.7) h · ng/ml; CL [2, 8]: 6.5 (15.7) liters/h; Cmax [2, 8]: 43,317 (14.8) ng/ml; Vz [2, 8]: 54.0 (17.9) liters; Tmax ([2]; single dose 1,000 mg, 2-h i.v. infusion): 2.0 (2.0, 2.1) h; t1/2 ([2]; single dose 1,000 mg, 2-h i.v. infusion, terminal elimination, mean (%CV)): 5.7 (3.3) h; Fe [2, 9]: 76.7 (9.4) %; Fe ([2]; single dose 1,000 mg, mean (%CV), listed as taniborbactam): 76.7%; CLR [2, 9]: 5.0 (16.7) liters/h; Ae [2, 9]: 766.9 (9.4) mg; AUCinf [2, 10]: 263,422 (17.8) h · ng/ml; CL [2, 10]: 5.9 (19.2) liters/h; Cmax [2, 10]: 71,817 (16.3) ng/ml; Vz [2, 10]: 49.4 (21.6) liters; Tmax ([2]; single dose 1,500 mg, 2-h i.v. infusion): 2.0 (2.0, 2.0) h; t1/2 ([2]; single dose 1,500 mg, 2-h i.v. infusion, terminal elimination, mean (%CV)): 5.8 (6.2) h; Fe [2, 11]: 66.6 (12.9) %; Fe ([2]; single dose 1,500 mg, mean (%CV), listed as taniborbactam): 66.6%; CLR [2, 11]: 3.9 (16.8) liters/h; Ae [2, 11]: 998.7 (12.9) mg; half-life of the earlier phase that characterizes the majority of exposure ([2]; single doses, also seen within dose intervals on multiple dosing): about 2 h; biotransformation products with a detectable UV response in pooled plasma samples [3]: no significant taniborbactam biotransformation products
